Laboratory results from US4317881A (priority 1979, dated 1982).

Key:
[1] = Inactivation of the enzyme by pH and temperature, with and without calcium
[2] = test system: cyclodextrin glycosyltransferase (E.C. 2.4.1.19); type: biochemical, Micrococcus varians M 849; settings: pH 7

Row | Molecule | Rise of the temperature at which the enzyme is still stable, versus absence of the metal ion ([1]; 10^-2 M calcium chloride, 15 min treatment (FIG. 6)) [°C] | Thermostability of the enzyme on addition of the salt ([1]; 10^-2 M-10^-3 M calcium chloride) | Residual activity [2] [%] | Inhibition of the enzyme (in words) [2]
1 | [Ca+2].[Cl-].[Cl-] [CaCl2, calcium chloride] | ~5 | enhanced | 100 | 
2 | [Cl-].[Cl-].[Co+2] [CoCl2] |  |  | 88 | 
3 | O=S(=O)([O-])[O-].[Cu+2] [CuSO4] |  |  | 6 | inhibited
4 | O=C(O)CN(CCN(CC(=O)O)CC(=O)O)CC(=O)O [Ethylenediaminetetraacetic acid] |  |  | 2 | inhibited
5 | O=S(=O)([O-])[O-].[Fe+2] [FeSO4] |  |  | 10 | inhibited
6 | [Cl-].[Cl-].[Mg+2] [MgCl2] |  |  | 100 | 
7 | O=S(=O)([O-])[O-].[Mg+2] [MgSO4] |  |  | 100 | 
8 | O=C(O)CI [Monoiodoacetic acid] |  |  | 97 | 
9 | c1cnc2c(c1)ccc1cccnc12 [O-Phenanthroline] |  |  | 100 | 
10 | [Cl-].[Cl-].[Zn+2] [ZnCl2] |  |  | 100 | 
11 | O=C(O)c1cc[c]([Hg][Cl])cc1 [p-Chloromercuribenzoic acid] |  |  | 95 | 
12 | HgCl2 |  |  | 5 | inhibited
